Laboratory results reported in patent US10500245B2, “Compositions for preventing and/or treating pathological conditions associated with alpha-glucosidase” (UNIVERSITE DE LA ROCHELLE, priority 2014, dated 2019).
Like-named read-outs stand apart in the source and are kept apart here. One block for each molecule: values may come before it. Where a SMILES comes first, the peptide text is derived from it. Where no end group is shown, it is not given here.

Legend:
DPP-IV from pig kidney = target: T1, DPP-IV from pig kidney (Sus scrofa, UniProt P22411); assay: In-vitro determination of the inhibition of DPP-IV by synthetic peptides (Example 14); format: biochemical; details: for IC50 / inhibitory activity of DPP-IV (IC50) in mmol/l: Table 13, substrate Gly-L-Pro-p-nitroanilide, pH 8.0, 37° C.; for IC50: read-out: inhibitory activity of DPP-IV (IC50); for inhibition of DPP-IV in words: relative to the reference Diprotin A
T1 construct: The enzyme used is DPP-IV from pig kidney; purchased Sigma D7052; host or cells: pig kidney
T1 sequence (P22411 whole entry): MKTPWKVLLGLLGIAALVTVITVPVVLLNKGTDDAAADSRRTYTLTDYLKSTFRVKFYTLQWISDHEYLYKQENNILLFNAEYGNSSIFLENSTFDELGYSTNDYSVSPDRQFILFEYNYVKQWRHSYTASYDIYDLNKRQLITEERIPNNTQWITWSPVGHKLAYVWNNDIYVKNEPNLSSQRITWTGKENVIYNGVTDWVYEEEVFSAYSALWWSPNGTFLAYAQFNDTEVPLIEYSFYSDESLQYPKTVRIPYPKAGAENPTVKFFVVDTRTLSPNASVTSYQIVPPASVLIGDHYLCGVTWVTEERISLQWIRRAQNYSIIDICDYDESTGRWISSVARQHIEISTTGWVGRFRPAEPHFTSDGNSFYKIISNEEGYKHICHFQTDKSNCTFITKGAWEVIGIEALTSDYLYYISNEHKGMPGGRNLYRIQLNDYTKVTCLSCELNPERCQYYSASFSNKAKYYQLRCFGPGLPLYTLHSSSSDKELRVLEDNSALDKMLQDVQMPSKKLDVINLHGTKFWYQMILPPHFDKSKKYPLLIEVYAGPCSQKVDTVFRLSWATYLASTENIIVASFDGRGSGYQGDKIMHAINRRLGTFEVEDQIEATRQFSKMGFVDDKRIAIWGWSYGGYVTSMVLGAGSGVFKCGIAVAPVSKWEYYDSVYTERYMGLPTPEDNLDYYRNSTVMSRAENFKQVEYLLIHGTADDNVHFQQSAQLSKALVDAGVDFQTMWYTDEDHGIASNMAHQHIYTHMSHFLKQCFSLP
Protocol: The inhibitory activity of synthetic peptides can be measured in vitro according to the following protocol:
25 μl of the substrate Gly-L-Pro-p-nitroanilide in 0.1 M Tris-HCL buffer (pH 8.0) at 1.6 mM is mixed with 25 μl of the peptide sample or of reference inhibitor at different concentrations. The samples are solubilized beforehand in Tris HCL buffer (pH8.0).
After preincubation at 37° C. for 10 min, 50 μl of the DPP-IV enzyme at a concentration of 0.01 U/ml in 0.1 M Tris-HCL buffer (pH 8.0) is added to the mixture in order to start the reaction. The reaction medium is incubated for 60 min at 37° C. and then the reaction is stopped by adding 100 μl of 1M sodium acetate buffer (pH4).
The quantity of product formed (p-nitroanilide) is measured by reading the absorbance at 385 nm using the Fluostar Omega spectrophotometer (BMG Labtech, Germany).
(§1) All the inhibition tests are carried out in triplicate.
The substrate used is Gly-L-Pro-p-nitroanilide hydrochloride (available from Sigma under reference G0513).
The enzyme used is DPP-IV from pig kidney (available from Sigma under reference D7052).
The reference inhibitor is Diprotin A, corresponding to the Ile-Pro-Ile tripeptide (available from Sigma under reference 19759).

[1] = target: T2, recombinant alpha-glucosidase from S. cerevisiae (maltase) (Saccharomyces cerevisiae, UniProt P53341); assay: biochemical; format: biochemical; details: for IC50: Table 2; for inhibition of α-glucosidase in words: relative to acarbose, miglitol and voglibose
T2 construct: purchased Sigma G0660-750UN
T2 sequence (P53341 whole entry): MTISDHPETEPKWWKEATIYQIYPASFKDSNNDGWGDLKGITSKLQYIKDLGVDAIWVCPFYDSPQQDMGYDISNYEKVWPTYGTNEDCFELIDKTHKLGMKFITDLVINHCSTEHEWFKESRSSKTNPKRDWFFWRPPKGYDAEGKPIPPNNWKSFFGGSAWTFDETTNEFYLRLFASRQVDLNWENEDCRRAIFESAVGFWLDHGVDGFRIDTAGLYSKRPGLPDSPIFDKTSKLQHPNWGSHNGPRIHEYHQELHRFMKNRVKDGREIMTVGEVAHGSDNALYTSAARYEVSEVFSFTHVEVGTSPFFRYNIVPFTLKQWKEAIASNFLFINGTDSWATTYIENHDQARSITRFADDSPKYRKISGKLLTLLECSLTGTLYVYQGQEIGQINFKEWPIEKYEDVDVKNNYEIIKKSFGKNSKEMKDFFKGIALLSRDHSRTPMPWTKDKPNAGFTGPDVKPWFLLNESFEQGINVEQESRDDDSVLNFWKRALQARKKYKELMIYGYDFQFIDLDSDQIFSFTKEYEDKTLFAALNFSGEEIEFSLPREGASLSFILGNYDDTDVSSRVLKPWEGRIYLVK
Protocol: 20 μl of α-glucosidase in 0.1M potassium phosphate buffer (pH 6.8) at 1.6 U/ml is mixed with 8 μl of the peptide sample or of the reference inhibitor at different concentrations.
The samples are solubilized beforehand in milliQ water containing 10% DMSO (available from Sigma under reference 472301).
After preincubation at 37° C. for 15 min, 20 μl of the substrate p-NPG at 20 mM in 0.1M potassium phosphate buffer (pH 6.8) is added to the mixture in order to start the reaction.
The reaction medium is incubated for 30 min at 37° C. and then the reaction is stopped by adding 80 μl of a 1M solution of sodium carbonate (Na2CO3).
The quantity of product formed (p-nitrophenyl) is measured by reading the absorbance at 410 nm using the Fluostar Omega spectrophotometer (BMG Labtech, Germany).
as §1
The enzyme used is recombinant alpha-glucosidase from S. cerevisiae (it is a maltase available from Sigma, under reference G0660-750UN).
The substrate used is 4-nitrophenyl α-D-glucopyranoside (p-NPG) (available from Sigma under reference N1377).

[2] = target: recombinant alpha-glucosidase from Saccharomyces cerevisiae, which is a maltase (Saccharomyces cerevisiae, UniProt P53341); assay: biochemical; details: for inhibition of alpha-glucosidase in words: relative to the AP and VAP peptides; for median inhibitory concentration of alpha-glucosidase (maltase), times lower relative to the reference inhibitors: relative to acarbose and miglitol
Sequence of recombinant alpha-glucosidase from Saccharomyces cerevisiae, which is a maltase (P53341 whole entry): as above
Protocol: The synthetic peptides were supplied by GENOSPHERE Biotechnologies.
The alpha-glucosidase used is the recombinant alpha-glucosidase from Saccharomyces cerevisiae, which is a maltase.
The samples were solubilized beforehand in deionized water containing 10% of DMSO (dimethyl sulphoxide).
After incubation at 37° C. for 20 minutes, 20 μL of the substrate p-NPG (p-nitrophenyl glucopyranoside) at 2.5 mM (prepared in the same buffer as mentioned above) was added to the mixture in order to start the reaction.
The reaction medium was incubated for 30 minutes at 37° C. and then the reaction was stopped by adding 80 μL of a solution of sodium carbonate (Na2CO3) at 0.3M.
The quantity of product formed (p-nitrophenyl (p-NP) of yellow colour) was measured by spectrophotometry (absorbance at 410 nm, VersaMax™, Microplate Reader).
The test was carried out in a 96-well microplate.
All the inhibition tests were carried out in triplicate.
The percentage inhibition was calculated from the following equation: […]
OD sample assay corresponds to the optical density obtained for the mixture “sample+enzyme+substrate”.
OD assay blank corresponds to the optical density obtained for the mixture “sample+buffer”.
OD control assay corresponds to the optical density obtained for the mixture “buffer+enzyme+substrate”.
OD control blank corresponds to the optical density obtained for the buffer.

db/db mice = assay: Oral test of tolerance to maltose in vivo in db/db mice (Example 5); details: maltose 2 g/kg; for effect on the glycaemia of the mice during the test of tolerance to maltose: alone or in combination
Protocol: The inhibitory activity of the AP and VAP peptides and the effect of the AP and VAP peptides on the glycaemic response can be measured in an oral test of tolerance to maltose in vivo in db/db mice that have a glucose intolerance of genetic origin. The mice are 4 weeks of age and each mouse is its own control. A dose of maltose (2 g/kg) was used in order to cause a temporary increase in glycaemia. Four (4) oral tests of tolerance to maltose (2 g/kg) were carried out on each mouse with a minimum interval of 48 h. The order was determined so as to cancel a potentially confounding effect of a change in body composition of the mice during the 3 study weeks. […] The maltose and the test products were administered directly by the oral route (gastric gavage), diluted in 0.9% saline solution. […] • Main Criterion: […] […] The secondary criteria for evaluation were: […] The AUC (area under the curve) was estimated by the trapezium method.

α-glucosidase = assay: In-vitro determination of the type of inhibition (Lineweaver-Burk, hydrolysis of p-NPG); format: biochemical; details: straight lines intersect at 1/Vmax
Protocol: The three straight lines are as follows: • Filled circle: […] • Empty circle: test in the presence of 50 μM of AP • Filled triangle: test in the presence of 100 μM of AP
Based on the initial rates, the Lineweaver-Burk representations for each concentration of inhibitor LKP were shown and the type of inhibition was determined. The synthetic LKP peptide was supplied by GENOSPHERE Biotechnologies.
Based on the initial rates, the Lineweaver-Burk representations for each concentration of inhibitor AP were shown and the type of inhibition was determined.

saccharase = saccharase (Homo sapiens, UniProt P14410); details: in particular saccharase; cited from earlier work
Sequence of saccharase (P14410 whole entry): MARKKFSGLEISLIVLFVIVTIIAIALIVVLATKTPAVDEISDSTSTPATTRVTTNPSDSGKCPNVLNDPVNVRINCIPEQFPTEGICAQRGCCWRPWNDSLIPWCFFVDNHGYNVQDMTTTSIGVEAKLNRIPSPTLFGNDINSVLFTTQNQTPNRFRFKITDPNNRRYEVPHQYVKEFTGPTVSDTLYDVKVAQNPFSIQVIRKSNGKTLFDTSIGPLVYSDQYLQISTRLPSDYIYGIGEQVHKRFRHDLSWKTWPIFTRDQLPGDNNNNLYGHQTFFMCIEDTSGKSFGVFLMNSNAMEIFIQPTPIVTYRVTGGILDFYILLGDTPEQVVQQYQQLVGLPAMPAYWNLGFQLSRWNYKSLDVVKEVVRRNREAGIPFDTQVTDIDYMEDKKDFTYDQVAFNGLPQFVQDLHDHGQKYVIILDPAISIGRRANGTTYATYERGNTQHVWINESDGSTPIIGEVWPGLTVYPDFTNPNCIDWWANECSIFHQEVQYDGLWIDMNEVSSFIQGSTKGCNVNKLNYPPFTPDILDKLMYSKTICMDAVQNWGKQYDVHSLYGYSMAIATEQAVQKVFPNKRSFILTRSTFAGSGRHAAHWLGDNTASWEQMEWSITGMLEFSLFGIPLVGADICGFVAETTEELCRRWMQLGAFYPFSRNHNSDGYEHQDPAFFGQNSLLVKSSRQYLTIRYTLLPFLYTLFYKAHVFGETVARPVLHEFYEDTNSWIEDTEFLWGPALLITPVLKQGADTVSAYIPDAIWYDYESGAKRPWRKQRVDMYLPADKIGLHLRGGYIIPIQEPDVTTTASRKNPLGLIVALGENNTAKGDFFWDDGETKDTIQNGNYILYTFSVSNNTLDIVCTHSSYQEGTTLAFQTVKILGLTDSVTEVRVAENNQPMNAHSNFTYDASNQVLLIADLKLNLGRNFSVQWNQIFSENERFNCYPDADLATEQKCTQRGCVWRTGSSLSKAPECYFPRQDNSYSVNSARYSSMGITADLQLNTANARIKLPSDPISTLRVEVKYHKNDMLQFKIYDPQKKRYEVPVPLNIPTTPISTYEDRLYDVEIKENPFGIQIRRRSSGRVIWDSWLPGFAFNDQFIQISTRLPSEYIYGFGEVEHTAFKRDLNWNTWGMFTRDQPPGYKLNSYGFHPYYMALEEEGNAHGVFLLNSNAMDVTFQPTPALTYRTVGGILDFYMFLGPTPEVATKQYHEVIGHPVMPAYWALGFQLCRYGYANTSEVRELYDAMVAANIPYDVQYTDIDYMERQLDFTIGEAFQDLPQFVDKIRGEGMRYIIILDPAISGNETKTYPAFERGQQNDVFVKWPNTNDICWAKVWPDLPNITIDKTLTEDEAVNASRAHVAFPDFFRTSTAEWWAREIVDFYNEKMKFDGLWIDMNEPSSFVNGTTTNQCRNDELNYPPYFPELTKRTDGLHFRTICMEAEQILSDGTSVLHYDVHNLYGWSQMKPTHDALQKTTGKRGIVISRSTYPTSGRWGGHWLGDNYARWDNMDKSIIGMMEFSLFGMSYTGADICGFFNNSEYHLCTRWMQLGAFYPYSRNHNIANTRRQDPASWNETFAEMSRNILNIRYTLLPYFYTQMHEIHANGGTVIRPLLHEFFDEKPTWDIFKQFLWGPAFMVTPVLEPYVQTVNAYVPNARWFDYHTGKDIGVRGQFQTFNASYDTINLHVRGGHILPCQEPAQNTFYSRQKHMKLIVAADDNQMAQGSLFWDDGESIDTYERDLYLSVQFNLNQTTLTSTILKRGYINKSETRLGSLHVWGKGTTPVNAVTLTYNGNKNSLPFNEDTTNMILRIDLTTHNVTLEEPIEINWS

[3] = Inhibitory activity on α-glucosidase (IC50) in mg/ml
[4] = Table 1, enzyme 0.2 U/mL, p-NPG 2.5 mM, pH 6.8, 37° C.
[5] = Table 1, enzyme 0.2 U/mL, p-NPG 2.5 mM, pH 6.8, 37° C., read-out: Inhibitory activity on α-glucosidase (IC50)
[6] = enzyme 1.6 U/ml, p-NPG 20 mM, pH 6.8, 37° C., read-out: Inhibitory activity on α-glucosidase (IC50)
[7] = read-out: Inhibitory activity on α-glucosidase (IC50) in mg/ml (converted)
[8] = Inhibitory activity on α-glucosidase (IC50) in mmol/l, enzyme 1.6 U/ml, p-NPG 20 mM, pH 6.8, 37° C.

Molecule: CC(C)[C@H](N)C(=O)N[C@@H](C)C(=O)N1CCC[C@H]1C(=O)NCC(=O)O [VAPG] (H-VAPG-OH; N-terminus and C-terminus assumed)
IC50 (DPP-IV from pig kidney): 2.27 ± 0.131 mM
IC50 [1, 3]: 4.05 mM

inhibitory activity of DPP-IV (IC50) in mmol/l (DPP-IV from pig kidney): No inhibition
Molecule: AVIPIPT

Molecule: VIY: peptide sequence VIY of Table 1
Inhibitory activity on α-glucosidase (IC50) in mM [2, 4]: No inhibition

Molecule: VAPFPEV [VAPFPEV]
IC50 (DPP-IV from pig kidney): 1.184 ± 0.008 mM
IC50 [1, 3]: 2.68 mM

Molecule: CC[C@H](C)[C@H](N)C(=O)N[C@@H](Cc1ccc(O)cc1)C(=O)O [IY] (H-Ile-Tyr-OH; N-terminus and C-terminus assumed)
IC50 [2, 5]: 12.3 mM
inhibition of alpha-glucosidase in words [2]: weak inhibitors
IC50 [1, 6]: 12.3 ± 0.25 mM
IC50 [1, 7]: 12.2 mM

Molecule: NCCCC[C@H](N)C(=O)N[C@@H](Cc1c[nH]c2ccccc12)C(=O)O [KW] (H-Lys-Trp-OH; N-terminus and C-terminus assumed)
IC50 [2, 5]: 12.8 ± 0.98 mM
inhibition of alpha-glucosidase in words [2]: weak inhibitors
IC50 [1, 6]: 12.8 ± 0.98 mM
IC50 [1, 7]: 12.7 mM

Molecule: CC(C)[C@H](N)C(=O)N[C@@H](C)C(=O)N1CCC[C@H]1C(=O)O [VAP] (H-Val-Ala-Pro-OH; N-terminus and C-terminus assumed)
effect on the glycaemia of the mice during the test of tolerance to maltose (db/db mice; 500 mg/kg): lower the glycaemia
IC50 ([2]; read-out: IC50 on α-glucosidase): 0.02 ± 0.00021 mM
median inhibitory concentration of alpha-glucosidase (maltase), times lower relative to the reference inhibitors [2]: approximately 600 times
IC50 (DPP-IV from pig kidney): 4.82 ± 2.3 mM
inhibition of DPP-IV in words (DPP-IV from pig kidney): very weakly
IC50 [1, 7]: 0.02 mM
inhibition of α-glucosidase in words [1]: strongly inhibit

Molecule: CC(C)C[C@H](NC(=O)[C@@H]1CCCN1C(=O)CN)C(=O)O [GPL] (H-Gly-Pro-Leu-OH; N-terminus and C-terminus assumed)
IC50 [2, 5]: 4.82 ± 0.15 mM
inhibition of alpha-glucosidase in words [2]: weak inhibitors
IC50 (DPP-IV from pig kidney): 1.85 ± 0.298 mM
IC50 [1, 6]: 4.82 ± 0.15 mM
IC50 [1, 7]: 4.81 mM

Molecule: SAPLRVY [SAPLRVY]
IC50 (DPP-IV from pig kidney): 1.06 ± 0.031 mM
IC50 [1, 3]: 1.76 mM
IC50 [1, 8]: 1.76 ± 0.18 mM

Molecule: C[C@H](N)C(=O)N1CCC[C@H]1C(=O)O [AP] (H-Ala-Pro-OH; N-terminus and C-terminus assumed)
maximum glycaemia value subtracted from the resting value (ΔCmax glycaemia) (db/db mice; 500 mg/kg by gastric gavage, resting value 150 mg/dl): approximately 280 mg/dl
effect on the glycaemia of the mice during the test of tolerance to maltose (db/db mice; 500 mg/kg): lower the glycaemia
effect of treatment on the maximum glycaemia value (db/db mice; 500 mg/kg): significant effect
effect on the glucose AUC during the oral test of tolerance to maltose (db/db mice; 500 mg/kg, 0-120 minutes): beneficial effect
IC50 ([2]; IC50 on α-glucosidase): 0.0136 ± 0.00092 mM
median inhibitory concentration of alpha-glucosidase (maltase), times lower relative to the reference inhibitors [2]: approximately 900 times
IC50 (DPP-IV from pig kidney): 4.78 ± 0.284 mM
inhibition of DPP-IV in words (DPP-IV from pig kidney): very weakly
type of inhibition of the degradation of p-NPG (α-glucosidase): competitive
IC50 [1, 3]: 0.0134 mM
inhibition of α-glucosidase in words [1]: strongly inhibit

Molecule: NCCCC[C@H](N)C(=O)N[C@@H](Cc1ccc(O)cc1)C(=O)O [KY]
IC50 [2, 5]: 10.96 ± 0.1 mM
inhibition of alpha-glucosidase in words [2]: weak inhibitors
inhibitory activity of DPP-IV (IC50) in mmol/l (DPP-IV from pig kidney): No inhibition
IC50 [1, 6]: 10.96 ± 0.1 mM
IC50 [1, 7]: 10.9 mM

Molecule: CC(C)C[C@H](N)C(=O)N[C@@H](CCCCN)C(=O)N1CCC[C@H]1C(=O)O [LKP] (H-Leu-Lys-Pro-OH; N-terminus and C-terminus assumed)
IC50 ([2]; Inhibitory activity on α-glucosidase (IC50) in mM, Table 1, enzyme 0.2 U/mL, p-NPG 2.5 mM, pH 6.8, 37° C.): 7.11 ± 0.2 mM
inhibition of alpha-glucosidase in words [2]: weak inhibitors
type of inhibition of the degradation of p-NPG (α-glucosidase): competitive
IC50 [1, 3]: 7.1 mM
IC50 [1, 8]: 7.11 ± 0.2 mM

Molecule: VGVAPG [VGVAPG]
IC50 (DPP-IV from pig kidney): 10.7 ± 0.769 mM
IC50 [1, 3]: 4.58 mM
IC50 [1, 8]: 4.59 ± 0.06 mM

Molecule: AKK: synthetic peptide of sequence AKK
Inhibitory activity on α-glucosidase (IC50) in mM [2, 4]: No inhibition

Molecule: OCCN1C[C@H](O)[C@@H](O)[C@H](O)[C@H]1CO [Miglitol, miglitol, reference compound]
mode of inhibition of alpha-glucosidase (saccharase): competitively and reversibly
IC50 [2, 5]: 39 ± 0.96 mM
IC50 [1, 3]: 37.5 mM
IC50 [1, 8]: 37.5 ± 0.69 mM

Molecule: CC(C)[C@H](N)C(=O)N[C@@H](Cc1ccc(O)cc1)C(=O)O [VY] (H-Val-Tyr-OH; N-terminus and C-terminus assumed)
inhibition of alpha-glucosidase in words [2]: weak inhibitors
inhibitory activity of DPP-IV (IC50) in mmol/l (DPP-IV from pig kidney): No inhibition
IC50 [1, 7]: 2.7 mM

Molecule: AVPYQR [AVPYQR]
IC50 (DPP-IV from pig kidney): 5.7 ± 0.08 mM
IC50 [1, 3]: 3.19 mM
